Data taken from patent US20250002463A1, “NEW SALT FORMS OF AMILORIDE AND ITS DERIVATIVES FOR PHARMACEUTICAL USE” (PSOMRI Holding AB, priority 2021, published 2025).

Tests used:
[1] = Physical stability under Accelerated Aging Conditions (AAC, 40° C./75% RH, 2 days), HT-XRPD; conditions: for Physical Stability: AAC 40° C./75% RH, 2 days, re-analyzed by HT-XRPD; for physical stability upon exposure to AAC: Example 2; for physical stability upon exposure to AAC / Physically stable after AAC: 40° C./75% RH for 2 days; for Physically stable after AAC: Example 1
[2] = Crystallinity of salt forms by HT-XRPD; type: physicochemical; conditions: salt screen solid forms
Experimental: The precipitated solids were analyzed by high throughput X-ray powder diffractometry (HT XRPD). Liquid phases (both solutions and mother liquors) were evaporated at ambient conditions and the residual solids were analyzed by HT XRPD.
XRPD patterns were obtained using the Ardena T2 high-throughput XRPD set-up. The plates were mounted on a Bruker General Area Detector Diffraction System (GADDS) equipped with a VÅNTEC-500 gas area detector corrected for intensity and geometric variations. The calibration of the measurement accuracy (peaks position) was performed using NIST SRM1976 standard (Corundum).
No background subtraction or curve smoothing was applied to the XRPD patterns.

| Compound | Physical Stability [1] | physical stability upon exposure to AAC [1] | Crystallinity [2] | Physically stable after AAC [1] |
| --- | --- | --- | --- | --- |
| CCCCCCCCCCCCCCCCCC(=O)O.NC(=NC(=O)c1nc(Cl)c(N)nc1N)NCc1ccccc1 [STE1] | Stable | physically stable | Obtained as mixture |  |
| N=C(NCc1ccccc1)NC(=O)c1nc(Cl)c(N)nc1N.O=[N+]([O-])O [NIT1] |  |  |  | physically unstable |
| CCC(=O)O.NC(=NC(=O)c1nc(Cl)c(N)nc1N)NCc1ccccc1 [PRO5] |  |  | Moderate |  |
| CCCCC(=O)O.NC(=NC(=O)c1nc(Cl)c(N)nc1N)NCc1ccccc1 [VAL2] |  |  | Poor |  |
| CCC(=O)O.NC(=NC(=O)c1nc(Cl)c(N)nc1N)NCc1ccccc1 [PRO4] | Unstable |  | Obtained as mixture |  |
| CCCCCCCCCCCCCCCCCC(=O)O.NC(=NC(=O)c1nc(Cl)c(N)nc1N)NCc1ccccc1 [STE2] | Stable | physically stable | Poor |  |
| NC(=NC(=O)c1nc(Cl)c(N)nc1N)NCc1ccccc1.O=C(O)CC(O)(CC(=O)O)C(=O)O [CIT1] | Unstable |  | Moderate/Poor |  |
| NC(=NCc1ccccc1)NC(=O)c1nc(Cl)c(N)nc1N.O=C(O)C=CC(=O)O [FUM1] | Unstable |  | Good |  |
| NC(=NC(=O)c1nc(Cl)c(N)nc1N)NCc1ccccc1.O=C(O)c1ccccc1O [SAL2] |  |  | Poor |  |
| CCC(=O)O.NC(=NC(=O)c1nc(Cl)c(N)nc1N)NCc1ccccc1 [PRO3] | Unstable |  | Moderate |  |
| CCS(=O)(=O)O.NC(=NC(=O)c1nc(Cl)c(N)nc1N)NCc1ccccc1 [ESY3] | Unstable |  | Poor |  |
| NC(=NC(=O)c1nc(Cl)c(N)nc1N)NCc1ccccc1.O=[N+]([O-])O [NIT4] |  |  |  | physically unstable |
| NC(=NC(=O)c1nc(Cl)c(N)nc1N)NCc1ccccc1.O=S(=O)(O)CCS(=O)(=O)O [EDY5] |  |  | Moderate |  |
| Br.NC(=NC(=O)c1nc(Cl)c(N)nc1N)NCc1ccccc1 [HBR10] | Unstable |  | Moderate |  |
| NC(=NC(=O)c1nc(Cl)c(N)nc1N)NCc1ccccc1.O=C(O)c1cc(=O)[nH]c(=O)[nH]1 [ORO3] | Poor- |  | Poor |  |
| NC(=NC(=O)c1nc(Cl)c(N)nc1N)NCc1ccccc1.O=C(O)c1ccco1 [FUR1] | Stable | physically stable | Good |  |
| CCS(=O)(=O)O.NC(=NC(=O)c1nc(Cl)c(N)nc1N)NCc1ccccc1 [ESY1] | Stable | physically stable | Good |  |
| NC(=NC(=O)c1nc(Cl)c(N)nc1N)NCc1ccccc1.O=C(O)C=Cc1ccccc1 [CIN1] | Stable | physically stable | Moderate |  |
| NC(=NC(=O)c1nc(Cl)c(N)nc1N)NCc1ccccc1.O=C(O)CNC(=O)c1ccccc1 [HIP2] |  |  | Poor |  |
| NC(=NC(=O)c1nc(Cl)c(N)nc1N)NCc1ccccc1.O=C(O)CNC(=O)c1ccccc1 [HIP1] | Unstable |  | Good |  |

| Compound | Physical Stability [1] | physical stability upon exposure to AAC [1] | Crystallinity [2] | Physically stable after AAC [1] |
| --- | --- | --- | --- | --- |
| N=C(NCc1ccccc1)NC(=O)c1nc(Cl)c(N)nc1N.O=P(O)(O)O [PHO1] |  |  |  | physically unstable |
| Cl.Cl.N=C(NCc1ccccc1)NC(=O)c1nc(Cl)c(N)nc1N [Di-HCl1] |  |  |  | physically unstable |
| CCCC(=O)O.NC(=NC(=O)c1nc(Cl)c(N)nc1N)NCc1ccccc1 [BUT2] | Unstable |  | Poor |  |
| NC(=NC(=O)c1nc(Cl)c(N)nc1N)NCc1ccccc1.O=C(O)C[C@H](O)C(=O)O [MAL1] | Stable | physically stable | Good |  |
| NC(=NC(=O)c1nc(Cl)c(N)nc1N)NCc1ccccc1.O=C(O)c1ccco1 [FUR2] |  |  | Good |  |
| Cc1ccc(S(=O)(=O)O)cc1.N=C(NCc1ccccc1)NC(=O)c1nc(Cl)c(N)nc1N [TOS2a] |  |  |  | physically unstable |
| NC(=NC(=O)c1nc(Cl)c(N)nc1N)NCc1ccccc1.O=C(O)CC(O)(CC(=O)O)C(=O)O [CIT2] |  |  | Good |  |
| NC(=NC(=O)c1nc(Cl)c(N)nc1N)NCc1ccccc1.O=C(O)c1cc2ccccc2c(Cc2c(O)c(C(=O)O)cc3ccccc23)c1O [PAM4] |  |  | Poor |  |
| NC(=NC(=O)c1nc(Cl)c(N)nc1N)NCc1ccccc1.O=C(O)CCCCC(=O)O [ADI1] | Unstable |  | Good |  |
| NC(=NC(=O)c1nc(Cl)c(N)nc1N)NCc1ccccc1.O=C(O)C=CC(=O)O [MAE3] | Stable | physically stable | Moderate |  |
| NC(=NC(=O)c1nc(Cl)c(N)nc1N)NCc1ccccc1.O=CO [FOR4] |  |  | Good |  |
| N=C(NCc1ccccc1)NC(=O)c1nc(Cl)c(N)nc1N.O=C(O)C=CC(=O)O [FUM2] | Stable | physically stable | Good |  |
| N=C(NCc1ccccc1)NC(=O)c1nc(Cl)c(N)nc1N.O=C(O)c1cc(O)ccc1O [GEN2] | Stable | physically stable | Moderate |  |
| N=C(NCc1ccccc1)NC(=O)c1nc(Cl)c(N)nc1N.O=C(O)CC(=O)O [MAO4] |  |  | Good |  |
| CCCCC(=O)O.NC(=NC(=O)c1nc(Cl)c(N)nc1N)NCc1ccccc1 [VAL1] | Stable | physically stable | Good |  |
| NC(=NC(=O)c1nc(Cl)c(N)nc1N)NCc1ccccc1.O=C(O)c1ccccc1O [SAL3] | Unstable- |  | Moderate |  |
| N=C(NCc1ccccc1)NC(=O)c1nc(Cl)c(N)nc1N.O=C(O)c1cc(=O)[nH]c(=O)[nH]1 [ORO1] | Stable | physically stable | Good |  |
| NC(=NC(=O)c1nc(Cl)c(N)nc1N)NCc1ccccc1.O=CO [FOR2] | Unstable |  | Moderate/Poor |  |
| NC(=NC(=O)c1nc(Cl)c(N)nc1N)NCc1ccccc1.O=CO [FOR5] |  |  | Good |  |
| NC(=NC(=O)c1nc(Cl)c(N)nc1N)NCc1ccccc1.O=C(O)c1cc(O)ccc1O [GEN3] | Unstable |  | Moderate |  |

| Compound | Physical Stability [1] | physical stability upon exposure to AAC [1] | Crystallinity [2] | Physically stable after AAC [1] |
| --- | --- | --- | --- | --- |
| NC(=NCc1ccccc1)NC(=O)c1nc(Cl)c(N)nc1N.O=[N+]([O-])O [NIT2] |  |  |  | physically unstable |
| NC(=NC(=O)c1nc(Cl)c(N)nc1N)NCc1ccccc1.O=S(=O)(O)CCS(=O)(=O)O [EDY1] | Unstable |  | Good |  |
| NC(=NCc1ccccc1)NC(=O)c1nc(Cl)c(N)nc1N.O=C(O)c1cc(=O)[nH]c(=O)[nH]1 [ORO2] | Stable | physically stable | Good - poorly |  |
| NC(=NC(=O)c1nc(Cl)c(N)nc1N)NCc1ccccc1.O=S(=O)(O)c1ccccc1 [BES1] | Unstable |  | Good |  |
| Br.N=C(NCc1ccccc1)NC(=O)c1nc(Cl)c(N)nc1N [HBR7] |  |  | Good |  |
| NC(=NC(=O)c1nc(Cl)c(N)nc1N)NCc1ccccc1.O=C(O)c1cc2ccccc2c(Cc2c(O)c(C(=O)O)cc3ccccc23)c1O [PAM1] | Stable | physically stable | Obtained as mixture |  |
| CCS(=O)(=O)O.NC(=NC(=O)c1nc(Cl)c(N)nc1N)NCc1ccccc1 [ESY4] |  |  | Moderate |  |
| CCC(=O)O.NC(=NC(=O)c1nc(Cl)c(N)nc1N)NCc1ccccc1 [PRO1] | Unstable |  | Good |  |
| NC(=NC(=O)c1nc(Cl)c(N)nc1N)NCc1ccccc1.O=C(O)c1ccco1 [FUR3] | Unstable |  | Good |  |
| N=C(NCc1ccccc1)NC(=O)c1nc(Cl)c(N)nc1N.O=S(=O)(O)c1ccc2ccccc2c1 [NSA1] | Unstable |  | Good |  |
| NC(=NCc1ccccc1)NC(=O)c1nc(Cl)c(N)nc1N.O=S(=O)(O)c1ccc2ccccc2c1 [NSA4] | Stable | physically stable | Poor |  |
| Br.NC(=NC(=O)c1nc(Cl)c(N)nc1N)NCc1ccccc1 [HBR6] |  |  | Good |  |
| N=C(NCc1ccccc1)NC(=O)c1nc(Cl)c(N)nc1N.O=CO [FOR1] |  |  | Good |  |
| NC(=NC(=O)c1nc(Cl)c(N)nc1N)NCc1ccccc1.O=S(=O)(O)c1ccc2ccccc2c1 [NSA2] | Stable | physically stable | Moderate |  |
| Br.N=C(NCc1ccccc1)NC(=O)c1nc(Cl)c(N)nc1N [HBR8] |  |  | Good |  |
| NC(=NC(=O)c1nc(Cl)c(N)nc1N)NCc1ccccc1.O=C(O)c1cc(O)ccc1O [GEN1] | Stable | physically stable | Moderate |  |
| Cc1ccc(S(=O)(=O)O)cc1.N=C(NCc1ccccc1)NC(=O)c1nc(Cl)c(N)nc1N [TOS3] |  |  |  | physically stable |
| CS(=O)(=O)O.NC(=NC(=O)c1nc(Cl)c(N)nc1N)NCc1ccccc1 [MES3] |  |  | Moderate |  |
| NC(=NC(=O)c1nc(Cl)c(N)nc1N)NCc1ccccc1.O=S(=O)(O)O [SUL2] |  |  |  | physically unstable |
